# According to ChEMBL document CHEMBL1123224, “Mechanism of action of the marine natural product stypoldione: evidence for reaction with sulfhydryl groups” (1986):
# Assays:
# Type in all cases: functional
# Bos taurus [1] = species on record: Bos taurus; assay: Carboxymethylation of bovine brain tubulin pre-incubated with 0 mol compound per mol tubulin
# Bos taurus [2] = species on record: Bos taurus; assay: Carboxymethylation of bovine brain tubulin pre-incubated with 86 mol compound per mol tubulin
# Bos taurus [3] = species on record: Bos taurus; assay: Carboxymethylation of bovine brain tubulin pre-incubated with 17 mol compound per mol tubulin
# Bos taurus [4] = species on record: Bos taurus; assay: Carboxymethylation of bovine brain tubulin pre-incubated with 69 mol compound per mol tubulin
# Bos taurus [5] = species on record: Bos taurus; assay: Carboxymethylation of bovine brain tubulin pre-incubated with 34 mol compound per mol tubulin
# Bos taurus [6] = species on record: Bos taurus; assay: Carboxymethylation of bovine brain tubulin pre-incubated with 8.6 mol compound per mol tubulin
smiles,measurement,setting,value
CC1=CC(=O)C(=O)C2=C1O[C@@]1(C2)[C@@H](C)CC[C@@H]2[C@@]3(C)CC[C@H](O)C(C)(C)C3CC[C@]21C (stereo partly specified) [STYPOLDIONE],Ratio_[3H]:tubulin,Bos taurus [1],20
same,Ratio_[3H]:tubulin,Bos taurus [2],4.3
same,Ratio_[3H]:tubulin,Bos taurus [3],16
same,Ratio_[3H]:tubulin,Bos taurus [4],4.8
same,Ratio_[3H]:tubulin,Bos taurus [5],12
same,Ratio_[3H]:tubulin,Bos taurus [6],22
